Common to all, as to experiment: inhibition of tumour cell growth, NCI panel, 48 h
Assay [1] has as its system COLO 205 colon.
Assay [2] relates to HOP-62 NSCLC.
In assay [3] the test system is M14 melanoma.
Assay [4] has as its system NCI-H23 lung.
Assay [5] deals with OVCAR-5 ovarian.
The subject of assay [6] is PC-3 prostate.
For assay [7], the system named is RPMI-8226 leukemia.
Assay [8] deals with SN12C renal.
Assay [9] has as its system SNB-75 CNS.
The subject of assay [10] is UO-31 renal.

Molecules are shown by their SMILES.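 Five compound concentrations were applied to cells in 96-well plates for 48 hours; endpoints were derived by simple linear interpolation of the resulting dose-response curve. TGI marks complete inhibition of growth.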 Where only a bound is given, the exact number is not on record here.

With `NC1=Nc2cc(Cl)ccc2Sc2nc3ccccc3n21`, the TGI in assay [1], in assay [2], in assay [3], in assay [4], in [5] and in [6] was above 100 µM in each case. For the same compound, the TGI in [7] was above 100 µM; in assay [8], above 100 µM; in assay [9], above 86.4 µM; in assay [10], above 100 µM.

On to `COC1=CC(=O)CC(C)C12Oc1c(Cl)c(OC)cc(OC)c1C2=O` (stereo not given), for which the TGI was 64 µM in [1]; above 100 µM in assay [2]; above 65.7 µM in [3]; above 100 µM in [4]; above 100 µM in [5]; above 70.3 µM in assay [6]. Also, the TGI in [7] is above 100 µM; in assay [8], above 100 µM; in assay [9] it was 28.5 µM; in assay [10], above 88.1 µM.

In the case of `Cc1c(N=Nc2ccccc2)c(C)n(C2OC(CO)C(O)C(O)C2O)c(=S)c1C#N` (stereo not given), the TGI in assay [1] is above 100 µM; in assay [2], 59.6 µM; in assay [3] it was 65.8 µM; in assay [4] it was above 100 µM; in assay [5] it was 81.5 µM; in [6] it was 78.6 µM. For the same compound, the TGI in assay [7] is above 100 µM; in assay [8], above 100 µM; in [9] it was above 100 µM; in assay [10], 73.1 µM.

With `C=C1CC(Cn2ccc(=O)[nH]c2=O)(c2ccc(Cl)cc2)OC1=O` (stereo not given), the TGI in [1] turned out to be 3.44 µM; in [2], 36.4 µM; in [3] it was 12.9 µM; in [4], 12.8 µM; in assay [5] it was 30.5 µM; in [6] it was 19.2 µM. Also, the TGI in assay [7] was found to be 3.94 µM; in assay [8], 28.1 µM; in assay [9], 30.9 µM; in [10], 33 µM.

Regarding `COC1=CC2(CC(OC)=C1OC)OC21COc2ccccc2C1=O` (stereo not given), the TGI in assay [1], in assay [2], in assay [3], in assay [4], in [5] and in assay [6] was above 100 µM in each case. The TGI in assay [7], in assay [8], in assay [9] and in [10] was above 100 µM each time.

Regarding `COc1cc2c3c(n(C)c(=O)c2cc1OC)-c1cc2c(cc1/C3=C\CCCI)OCO2`, the TGI in [1], in assay [2], in [3], in assay [4], in [5] and in assay [6] was above 100 µM throughout. In addition, the TGI in assay [7] was above 74.6 µM; in [8], above 100 µM; in assay [9] it was above 52 µM; in assay [10], above 100 µM.

`CCCCCCCCCCCCCCC(O)C[N+](C)(CCO)CCO` (stereo not given): the TGI amounted to 3.19 µM in assay [1]; 10.3 µM in [2]; 3.66 µM in [3]; 20.7 µM in assay [4]; 7.92 µM in [5]; 4.31 µM in [6]. In addition, the TGI in assay [7] turned out to be 5.52 µM; in assay [8] it was 21.5 µM; in [9], 2.85 µM; in assay [10] it was 17 µM.

For the compound `COc1cc2c(c(O)c1OC)CC1CCC(=O)N1C2c1cccc2ccccc12` (stereo not given), the TGI in assay [1] was 28.9 µM; in assay [2], 41.8 µM; in [3], 33.8 µM; in assay [4], 67.6 µM; in assay [5] it was 38.2 µM; in assay [6] it was 43.7 µM. Also, the TGI is above 100 µM in [7], 34.2 µM in [8], above 100 µM in assay [9] and 55.4 µM in assay [10].

As to `CCOC(=O)c1nc2ccc(C(F)(F)F)cc2nc1Nc1ccc(Cl)c(Cl)c1`, the TGI in assay [1], in [2], in [3], in assay [4], in assay [5] and in assay [6] was above 100 µM each time. The TGI in [7], in assay [8], in assay [9] and in assay [10] was above 100 µM in each case.

On to `Cn1ncc2c(Cl)ncnc21`, for which the TGI in assay [1], in assay [2], in assay [3], in assay [4], in assay [5] and in assay [6] was above 100 µM each time. The TGI in [7], in assay [8], in assay [9] and in [10] was above 100 µM in each case.

On to `COC(=O)c1ccc(C)cc1CC1Cc2ccc(C)cc2C1=O` (stereo not given), for which the TGI in assay [1] was 26.1 µM; in [2], above 100 µM; in [3] it was 32.2 µM; in assay [4], 74.7 µM; in assay [5], 92.4 µM; in assay [6], 71.8 µM. Besides, the TGI in assay [7] worked out at 36.5 µM; in assay [8] it was 32.7 µM; in assay [9], 43.8 µM; in [10], 64 µM.

On to `O=C1C(Cl)=C(N(C(=O)c2ccccc2)C(=O)c2ccccc2)C(=O)c2ccccc21`, for which the TGI was 31 µM in assay [1]; above 100 µM in assay [2]; above 100 µM in [3]; 31.1 µM in assay [4]; 34.3 µM in [5]; above 100 µM in [6]. For the same compound, the TGI in assay [7] was determined as 8.87 µM; in assay [8], 61.3 µM; in [9], 24 µM; in [10], 15.7 µM.

With `COc1ccccc1NC(=O)CC(=O)N1N=C(N2c3ccccc3Sc3ccccc32)CC1c1ccccc1` (stereo not given), the TGI in assay [1], in assay [2], in assay [3], in assay [4], in assay [5] and in assay [6] was above 100 µM each time. Moreover, the TGI in assay [7], in assay [8], in assay [9] and in assay [10] was above 100 µM each time.

(Values after PubChem BioAssay (NCI).)
